# Results: patent US12139499B2, “Heteroaryl compounds for treating Huntington's disease” (PTC THERAPEUTICS, INC., priority 2018, dated 2024)
# Tested on: Endogenous Huntingtin Protein
# Assay: Endogenous Huntingtin Protein Assay (ELISA-based MSD electrochemiluminescence)
# Assay type: cell-based
# Details: Table 1
# How it was run: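 Huntingtin was captured overnight at 4 °C on plates coated with 1 μg/mL MW1 (polyQ-expanded) or MAB2166 antibody and BSA-blocked. Detection used a rabbit monoclonal and then a SULFO-TAG goat anti-rabbit antibody (0.25 μg/mL, 1 h each, room temperature). Signal was read by electrochemiluminescence.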
row,Compound,IC50 [nM]
1,"CCN1CCC(Oc2nc3c(F)cc(-c4cc(C)c5nc(C)cn5n4)cc3s2)CC1 [Compound 321, 6-{2-[(1-ethylpiperidin-4-yl)oxy]-4-fluoro-1,3-benzothiazol-6-yl}-2,8-dimethylimidazo[1,2-b]pyridazine]",≤ 100
2,"Cc1cn2cc(-c3cc4sc(N(C)C5CC6(C)CCC(C)(C5)N6)nc4cn3)nc2c(C)n1 [Compound 322, N-[(1R,3s,5S)-1,5-dimethyl-8-azabicyclo[3.2.1]octan-3-yl]-6-(6,8-dimethylimidazo[1,2-a]pyrazin-2-yl)-N-methyl[1,3]thiazolo[4,5-c]pyridin-2-amine]",≤ 100
3,"Cc1cn2cc(-c3ncc4nc(N(C)[C@H]5C[C@]6(C)CC[C@](C)(C5)N6)sc4n3)cc2c(C)n1 [Compound 323, N-[(1R,3s,5S)-1,5-dimethyl-8-azabicyclo[3.2.1]octan-3-yl]-5-(1,3-dimethylpyrrolo[1,2-a]pyrazin-7-yl)-N-methyl[1,3]thiazolo[5,4-d]pyrimidin-2-amine]",≤ 100
4,"Cc1cn2cc(-c3ncc4nc(N(C)[C@@H]5CC(C)(C)NC(C)(C)[C@@H]5F)sc4n3)cc(C#N)c2n1 [Compound 324, 6-(2-{[(3R,4R)-3-fluoro-2,2,6,6-tetramethylpiperidin-4-yl](methyl)amino}[1,3]thiazolo[5,4-d]pyrimidin-5-yl)-2-methylimidazo[1,2-a]pyridine-8-carbonitrile]",≤ 100
5,"Cc1cn2cc(-c3cc4sc(N(C)[C@@H]5CC(C)(C)NC(C)(C)[C@@H]5F)nc4cn3)cc(C#N)c2n1 [Compound 325, 6-(2-{[(3R,4R)-3-fluoro-2,2,6,6-tetramethylpiperidin-4-yl](methyl)amino}[1,3]thiazolo[4,5-c]pyridin-6-yl)-2-methylimidazo[1,2-a]pyridine-8-carbonitrile]",≤ 100
6,Cc1cn2cc(-c3cc4sc(N(C)[C@H]5C[C@]6(C)CC[C@@](C)(N6)[C@H]5F)nc4cn3)cc(F)c2n1 [Compound 326],≤ 100
7,"CN(c1nc2nnc(-c3ccc(-n4ccnc4)cc3O)cc2s1)C1CCNCC1 [Compound 327, 5-(1H-imidazol-1-yl)-2-{6-[methyl(piperidin-4-yl)amino][1,3]thiazolo[4,5-c]pyridazin-3-yl}phenol]",100 to 500
8,"CN(c1nc2nnc(-c3cc(F)c(-c4cn[nH]c4)cc3F)cc2s1)C1CCNCC1 [Compound 328, 3-[2,5-difluoro-4-(1H-pyrazol-4-yl)phenyl]-N-methyl-N-(piperidin-4-yl)[1,3]thiazolo[4,5-c]pyridazin-6-amine]",100 to 500
9,"CN(c1nc2nnc(-c3ccc(-c4c[nH]nc4F)cc3O)cc2s1)C1CCNCC1 [Compound 329, 5-(3-fluoro-1H-pyrazol-4-yl)-2-{6-[methyl(piperidin-4-yl)amino][1,3]thiazolo[4,5-c]pyridazin-3-yl}phenol]",≤ 100
10,"CN1CCC(N(C)c2nc3nnc(-c4ccc(-c5c[nH]nc5F)cc4O)cc3s2)CC1 [Compound 332, 5-(3-fluoro-1H-pyrazol-4-yl)-2-{6-[methyl(1-methylpiperidin-4-yl)amino][1,3]thiazolo[4,5-c]pyridazin-3-yl}phenol]",≤ 100
11,"Oc1cc(-c2cn[nH]c2)ccc1-c1cc2sc(N3CCNCC3)nc2nn1 [Compound 334, 2-[6-(piperazin-1-yl)[1,3]thiazolo[4,5-c]pyridazin-3-yl]-5-(1H-pyrazol-4-yl)phenol]",100 to 500
12,"Oc1cc(-c2cn[nH]c2)ccc1-c1nc2cnc(C3=CCNCC3)cc2s1 [Compound 335, 5-(1H-pyrazol-4-yl)-2-[6-(1,2,3,6-tetrahydropyridin-4-yl)[1,3]thiazolo[4,5-c]pyridin-2-yl]phenol]",1000 to 3000
13,"CN1C[C@H](F)[C@H](Nc2nc3nnc(-c4ccc(-c5cn[nH]c5)cc4O)cc3s2)C1 [Compound 336, 2-(6-{[(3R,4S)-4-fluoro-1-methylpyrrolidin-3-yl]amino}[1,3]thiazolo[4,5-c]pyridazin-3-yl)-5-(1H-pyrazol-4-yl)phenol]",1000 to 3000
14,"CC1(C)C=C(c2cc3sc(-c4ccc(-c5cn[nH]c5)cc4O)nc3cn2)CC(C)(C)N1 [Compound 337, 5-(1H-pyrazol-4-yl)-2-[6-(2,2,6,6-tetramethyl-1,2,3,6-tetrahydropyridin-4-yl)[1,3]thiazolo[4,5-c]pyridin-2-yl]phenol]",500 to 1000
15,"Oc1cc(-c2cn[nH]c2)ccc1-c1cc2sc(N3CC4(CCCNC4)C3)nc2nn1 [Compound 338, 2-[6-(2,6-diazaspiro[3.5]nonan-2-yl)[1,3]thiazolo[4,5-c]pyridazin-3-yl]-5-(1H-pyrazol-4-yl)phenol]",500 to 1000
16,"CN1CCC2(CC1)CCN2c1nc2nnc(-c3ccc(-c4cn[nH]c4)cc3O)cc2s1 [Compound 339, 2-[6-(7-methyl-1,7-diazaspiro[3.5]nonan-1-yl)[1,3]thiazolo[4,5-c]pyridazin-3-yl]-5-(1H-pyrazol-4-yl)phenol]",≤ 100
17,"CN1CCC2(CCN(c3nc4nnc(-c5ccc(-c6cn[nH]c6)cc5O)cc4s3)C2)C1 (stereo not drawn) [Compound 340, 2-[6-(7-methyl-2,7-diazaspiro[4.4]nonan-2-yl)[1,3]thiazolo[4.5-c]pyridazin-3-yl]-5-(1H-pyrazol-4-yl)phenol]",1000 to 3000
18,"Oc1cc(-c2c[nH]nc2F)ccc1-c1cc2sc(N3CC4(CCNCC4)C3)nc2nn1 [Compound 341, 2-[6-(2,7-diazaspiro[3.5]nonan-2-yl)[1,3]thiazolo[4,5-c]pyridazin-3-yl]-5-(3-fluoro-1H-pyrazol-4-yl)phenol]",500 to 1000
19,"CN1C[C@H](Nc2nc3nnc(-c4ccc(-c5cn[nH]c5)cc4O)cc3s2)[C@@H](F)C1 [Compound 342, 2-(6-{[(3S,4S)-4-fluoro-1-methylpyrrolidin-3-yl]amino}[1,3]thiazolo[4,5-c]pyridazin-3-yl)-5-(1H-pyrazol-4-yl)phenol]",100 to 500
20,"CN1CC(N(C)c2nc3nnc(-c4ccc(-c5cn[nH]c5)cc4O)cc3s2)C1 [Compound 343, 2-{6-[methyl(1-methylazetidin-3-yl)amino][1,3]thiazolo[4,5-c]pyridazin-3-yl}-5-(1H-pyrazol-4-yl)phenol]",100 to 500
21,"Oc1cc(-c2cn[nH]c2)ccc1-c1cc2sc(N3CC[C@H]4CNCC[C@H]43)nc2nn1 [Compound 344, 2-{6-[(3aS,7aR)-octahydro-1H-pyrrolo[3,2-c]pyridin-1-yl][1,3]thiazolo[4,5-c]pyridazin-3-yl]-5-(1H-pyrazol-4-yl)phenol]",≤ 100
22,"CN[C@H]1CC[C@@H](N(C)c2nc3nnc(-c4ccc(-c5cn[nH]c5)cc4O)cc3s2)CC1 [Compound 345, 2-(6-{methyl[(1s,4s)-4-(methylamino)cyclohexyl]amino}[1,3]thiazolo[4,5-c]pyridazin-3-yl)-5-(1H-pyrazol-4-yl)phenol]",100 to 500
23,"CN(c1nc2nnc(-c3ccc(-c4cn[nH]c4)cc3O)cc2s1)[C@@H]1CNC[C@@H]1F [Compound 346, 2-(6-{[(3R,4S)-4-fluoropyrrolidin-3-yl](methyl)amino}[1,3]thiazolo[4,5-c]pyridazin-3-yl)-5-(1H-pyrazol-4-yl)phenol]",100 to 500
24,"CN1CC[C@@H]2[C@@H](CCN2c2nc3nnc(-c4ccc(-c5cn[nH]c5)cc4O)cc3s2)C1 [Compound 347, 2-{6-[(3aS,7aR)-5-methyloctahydro-1H-pyrrolo[3,2-c]pyridin-1-yl][1,3]thiazolo[4,5-c]pyridazin-3-yl}-5-(1H-pyrazol-4-yl)phenol]",1000 to 3000
